Experimental data reported in patent US12344610B2, “APOL1 inhibitors and methods of use” (Maze Therapeutics, Inc., priority 2022, dated 2025).

What was measured:
Assay type in all cases: cell-based
[1] = tested on: HEK293 clonal cell line overexpressing APOL1 G1; experiment: APOL1 G1 HEK293 cell rescue assay (Example B3); conditions: Homo sapiens, HEK293, HEK293 clonal line overexpressing APOL1 G1; geometric mean of at least 2 runs; † = single run; ¥ = concentration at 50% rescue estimated (no sigmoidal curve)
Procedure, shortened: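 HEK293 clonal line overexpressing APOL1 G1; EC50 is half-maximal reversal of APOL1-induced cell death. Values are the geometric mean of ≥2 runs on separate days, each run the average of duplicate wells. Where no sigmoidal curve could be fitted, the concentration giving 50% rescue was estimated.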

[2] = tested on: Trypanosoma brucei Lister 427 VSG221 with APOL1 G2 recombinant protein; experiment: APOL1 G2 trypanosome cell rescue assay (Example B5); conditions: Trypanosoma brucei, 20 h, read-out: APOL1 G2 Trypanosome Rescue EC50, Trypanosoma brucei Lister 427 VSG221 with APOL1 G2 recombinant protein, 20 hours, CellTiter-Glo; geometric mean of at least 2 assay runs; † = single assay run
Procedure, shortened: (§1)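 Compounds in duplicate 2-fold, 11-point series with 0.4% DMSO final. Next, tag-free mature APOL1 variant protein went in from a 2 μg/mL solution, then trypanosomes to 250 per well. Plates incubated 20 h humidified at 37° C, equilibrated to room temperature, and CellTiter-Glo added for luminescence.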

[3] = tested on: Trypanosoma brucei Lister 427 VSG221 with APOL1 G0 recombinant protein; experiment: APOL1 G0 trypanosome cell rescue assay (Example B5); conditions: Trypanosoma brucei, 20 h, read-out: APOL1 G0 Trypanosome Rescue EC50, Trypanosoma brucei Lister 427 VSG221 with APOL1 G0 recombinant protein, 20 hours, CellTiter-Glo; geometric mean of at least 2 assay runs; † = single assay run
Procedure, shortened: as §1

[4] = tested on: Trypanosoma brucei Lister 427 VSG221 with APOL1 G1 recombinant protein; experiment: APOL1 G1 trypanosome cell rescue assay (Example B5); conditions: Trypanosoma brucei, 20 h, read-out: APOL1 G1 Trypanosome Rescue EC50, Trypanosoma brucei Lister 427 VSG221 with APOL1 G1 recombinant protein, 20 hours, CellTiter-Glo; geometric mean of at least 2 assay runs; † = single assay run
Procedure, shortened: as §1

Row | Compound | EC50 [1] | EC50 [2] | EC50 [3] | EC50 [4]
1 | CC(C)(O)c1ncc(OCCN2CCC3(CC2)C(=O)Nc2ccc(Cl)cc23)cc1C(F)(F)F [Compound 371, 5-chloro-1′-(2-{[6-(2-hydroxypropan-2-yl)-5-(trifluoromethyl)pyridin-3-yl]oxy}ethyl)-1,2-dihydrospiro[indole-3,4′-piperidin]-2-one] | 28.8 nM | 9.16 nM | 18.8 nM | 21.9 nM
2 | CCC1(O)CN(c2ncc(OCCN3CCC4(CC3)C(=O)Nc3ccc(Cl)cc34)cn2)C1 [Compound 397, 5-chloro-1′-(2-{[2-(3-ethyl-3-hydroxyazetidin-1-yl)pyrinlidin-5-yl]oxy}ethyl)-1,2-dihydrospiro[indole-3,4′-piperidin]-2-one] | 105 nM | 85.2 nM | 226 nM | 269 nM
3 | C[C@]1(O)C[C@@H](n2ccc3cc(OCCN4CCC5(CC4)C(=O)Nc4ccc(C#N)cc45)cnc32)C1 [Compound 410, 2-oxo-1′-[2-({1-[(cis)-3-hydroxy-3-methylcyclobutyl]-1H-pyrrolo[2,3-b]pyridin-5-yl}oxy)ethyl]-1,2-dihydrospiro[indole-3,4′-piperidine]-5-carbonitrile] | 93.3 nM | 92.4 nM | 206 nM | 269 nM
4 | [2H]C([2H])(Oc1cnc2c(c1)CCC(=O)N2[C@H]1C[C@@](C)(O)C1)C([2H])([2H])N1CCC2(CC1)C(=O)Nc1ccc(Cl)cc12 [Compound 426, 5-chloro-1′-[2-({7-oxo-8-[(cis)-3-hydroxy-3-methylcyclobutyl]-5,6,7,8-tetrahydro-1,8-naphthyridin-3-yl}oxy)(1,1,2,2-^2H4)ethyl]-1,2-dihydrospiro[indole-3,4′-piperidin]-2-one] | 80.3 nM | 36.7 nM | 71 nM | 88.8 nM
5 | C[C@]1(O)C[C@@H](n2cc3cc(OCCN4CCC5(CC4)C(=O)Nc4ccc(Cl)cc45)cc(C(F)(F)F)c3n2)C1 [Compound 427, 5-chloro-1′-[2-({2-[(cis)-3-hydroxy-3-methylcyclobutyl]-7-(trifluoromethyl)-2H-indazol-5-yl}oxy)ethyl]-1,2-dihydrospiro[indole-3,4′-piperidin]-2-one] | 35.8 nM | 6.62 nM | 15.6 nM | 18.1 nM
6 | C[C@]1(O)C[C@@H](n2cc3cc(OCCN4CCC5(CC4)C(=O)Nc4ccc(C#N)cc45)cc(C(F)(F)F)c3n2)C1 [Compound 428, 2-oxo-1′-[2-({2-[(cis)-3-hydroxy-3-methylcyclobutyl]-7-(trifluoromethyl)-2H-indazol-5-yl}oxy)ethyl]-1,2-dihydrospiro[indole-3,4′-piperidine]-5-carbonitrile] | 89.6 nM | 32.3 nM | 63.3 nM | 71.9 nM
7 | C[C@]1(O)C[C@@H](n2nnc3cc(OCCN4CCC5(CC4)C(=O)Nc4ccc(C#N)cc45)cc(C(F)(F)F)c32)C1 [Compound 435, 2-oxo-1′-[2-({1-[(cis)-3-hydroxy-3-methylcyclobutyl]-7-(trifluoromethyl)-1H-1,2,3-benzotriazol-5-yl}oxy)ethyl]-1,2-dihydrospiro[indole-3,4′-piperidine]-5-carbonitrile] | 38.4 nM | 14.5 nM | 27.1 nM | 27.2 nM
8 | C[C@]1(O)C[C@@H](n2cnc3cc(OCCN4CCC5(CC4)C(=O)Nc4ccc(Cl)cc45)cc(C#N)c32)C1 [Compound 439, 5-(2-{5-chloro-2-oxo-1,2-dihydrospiro[indole-3,4′-piperidin]-1′-yl}ethoxy)-1-[(cis)-3-hydroxy-3-methylcyclobutyl]-1H-1,3-benzodiazole-7-carbonitrile] | 45.5 nM | 20.2 nM | 50.5 nM | 51 nM
9 | C[C@]1(O)C[C@@H](n2nnc3cc(OCCN4CCC5(CC4)C(=O)Nc4ccc(Cl)cc45)cnc32)C1 [Compound 440, 5-chloro-1′-[2-({3-[(cis)-3-hydroxy-3-methylcyclobutyl]-3H-[1,2,3]triazolo[4,5-b]pyridin-6-yl}oxy)ethyl]-1,2-dihydrospiro[indole-3,4′-piperidin]-2-one] | 139 nM | 70.5 nM | 160 nM | 205 nM
10 | CC1(O)CC2(CN(c3ncc(OCCN4CCC5(CC4)C(=O)Nc4ccc(Cl)cc45)cn3)C2)C1 [Compound 459, 5-chloro-1′-{2-[(2-{6-hydroxy-6-methyl-2-azaspiro[3.3]heptan-2-yl}pyrimidin-5-yl)oxy]ethyl}-1,2-dihydrospiro[indole-3,4′-piperidin]-2-one] | 95.5 nM | 49.8 nM | 101 nM | 133 nM
11 | C[C@]1(O)C[C@@H](N2C(=O)C3(CC3)c3cc(OCCN4CCC5(CC4)C(=O)Nc4ccc(Cl)cc45)cnc32)C1 [Compound 460, 5-chloro-1′-(2-{2′-oxo-1′-[(cis)-3-hydroxy-3-methylcyclobutyl]-1′,2′-dihydrospiro[cyclopropane-1,3′-pyrrolo[2,3-b]pyridin]-5′-yloxy}ethyl)-1,2-dihydrospiro[indole-3,4′-piperidin]-2-one] | 97.7 nM | 53.7 nM | 104 nM | 118 nM
12 | [2H]C([2H])([2H])[C@]1(O)C[C@@H](N2C(=O)CCc3cc(OCCN4CCC5(CC4)C(=O)Nc4ccc(Cl)cc45)cnc32)C1 [Compound 461, 5-chloro-1′-[2-({7-oxo-8-[(cis)-3-hydroxy-3-(^2H3)methylcyclobutyl]-5,6,7,8-tetrahydro-1,8-naphthyridin-3-yl}oxy)ethyl]-1,2-dihydrospiro[indole-3,4′-piperidin]-2-one] | 80.9 nM | 28.8 nM | 69.2 nM | 75.5 nM
13 | C[C@]1(O)C[C@@H](n2c(=O)[nH]c3cc(OCCN4CCC5(CC4)C(=O)Nc4ccc(Cl)cc45)cc(C(F)(F)F)c32)C1 [Compound 468, 5-chloro-1′-[2-({2-oxo-1-[(cis)-3-hydroxy-3-methylcyclobutyl]-7-(trifluoromethyl)-2,3-dihydro-1H-1,3-benzodiazol-5-yl}oxy)ethyl]-1,2-dihydrospiro[indole-3,4′-piperidin]-2-one] | 14.5 nM | 2.4 nM | 3.72 nM | 5.59 nM
14 | C[C@]1(O)C[C@@H](n2c(=O)[nH]c3cc(OCCN4CCC5(CC4)C(=O)Nc4ccc(C#N)cc45)cc(C(F)(F)F)c32)C1 [Compound 470, 2-oxo-1′-[2-({2-oxo-1-[(cis)-3-hydroxy-3-methylcyclobutyl]-7-(trifluoromethyl)-2,3-dihydro-1H-1,3-benzodiazol-5-yl}oxy)ethyl]-1,2-dihydrospiro[indole-3,4′-piperidine]-5-carbonitrile] | 47.6 nM | 4.41 nM | 8.82 nM | 12.4 nM
